Experimental data: patent US7786127B2, “Benzimidazole thiophene compounds” (Glaxo SmithKline LLC, priority 2005, dated 2010)

Experiments:
Format in all cases: cell-based
H460 = experiment: Methylene blue growth inhibition assay, H460; conditions: Homo sapiens, NCI-H460, 72 h
Method: (§1) Generally, exponentially growing cell lines of different tumor origins, cultured in appropriate media containing 10% fetal bovine serum at 37° C. in a 5% CO2 incubator were plated at low density (less than 2000 cells/well) in 96-well plates. Twenty four hours post-plating, cells were treated with different concentrations of test compounds ranging from 10 uM to 0.04 nM. Several wells were left untreated as a control. Seventy two hours post-treatment, cell numbers were determined using 10 μl per well of methylene blue (Sigma M9140) (0.5% in 50:50 Ethanol:water). […] Plates were read on a microplate reader, measuring the OD at 620 nm. […]
(§2) In one assay, normal human foreskin fibroblasts (HFF), human colon (HCT116, RKO), lung (H460, A549) and breast (MCF7) tumor cell lines were cultured in high glucose DMEM (Life Technologies) containing 10% fetal bovine serum (FBS) at 37° C. in a humidified 5% CO2, 95% air incubator. Cells were harvested using trypsin/EDTA, counted using a haemocytometer, and plated in 100 μL of culture media per well, at the following densities, in a 96-well tissue culture plate (Falcon 3075): HFF 5,000 cells/well, HCT116 3,000 cells/well, RKO 2,500 cells/well, H460 2,500 cells/well, A549 5,000 cells/well, MCF7 4,000 cells/well. […] Optical density at 620 nm was measured on a microplate reader. […]

[1] = test system: normal human foreskin fibroblasts (HFF); experiment: Methylene blue growth inhibition assay, HFF; conditions: Fibroblast, 72 h
Method: as §1, §2

RKO = experiment: Methylene blue growth inhibition assay, RKO; conditions: Homo sapiens, 72 h
Method: as §1, §2

HCT116 = experiment: Methylene blue growth inhibition assay, HCT116; conditions: Homo sapiens, HCT-116, 72 h
Method: as §1, §2

A549 = experiment: Methylene blue growth inhibition assay, A549; conditions: Homo sapiens, 72 h
Method: as §1, §2

MCF7 = experiment: Methylene blue growth inhibition assay, MCF7; conditions: Homo sapiens, 72 h
Method: as §1, §2

Compound	IC50 (H460)	IC50 [1]	IC50 (RKO)	IC50 (HCT116)	IC50 (A549)	IC50 (MCF7)
C[C@@H](Oc1cc(-n2cnc3ccc(OC4CCN(C)CC4)cc32)sc1C(N)=O)c1ccccc1Cl [Example 8, 3-{[(1R)-1-(2-Chlorophenyl)ethyl]oxy}-5-{6-[(1-methyl-4-piperidinyl)oxy]-1H-benzimidazol-1-yl}-2-thiophenecarboxamide]	< 100 nM	< 100 nM	< 100 nM	< 100 nM	< 100 nM	–
C[C@@H](Oc1cc(-n2cnc3ccc(OC4CCN(C)CC4)cc32)sc1C(N)=O)c1ccccc1C(F)(F)F [Example 7, 5-{6-[(1-Methyl-4-piperidinyl)oxy]-1H-benzimidazol-1-yl}-3-({(1R)-1-[2-(trifluoromethyl)phenyl]ethyl}oxy)-2-thiophenecarboxamide]	< 100 nM	100 to 1000 nM	< 100 nM	< 100 nM	< 100 nM	< 100 nM
